Measurements: patent US11103526B2, “Methods for treatment using small molecule potassium-sparing diuretics and natriuretics” (University of Pittsburgh—Of the Commonwealth System of …, priority 2016, dated 2021)

What was measured:
[1] = Protocol 2: renal microdialysate and urine levels after intravenous bolus (Example 12); conditions: after 33.5 μmoles/kg intravenous bolus
Method: Rats were prepared in a similar fashion to that described in Protocol 1, but with modifications. Specifically, microdialysis probes were inserted into the cortex and medulla of the right kidney and were perfused at 2 μl/min with 0.9% saline. The microdialysis probes used in this protocol were from Bioanalytical Systems (West Lafayette, Ind.; CMA/20 microdialysis probe 4 mm; outer diameter of 0.5 mm; 20,000 dalton membrane cut-off). After initiating the probe perfusions, the infusion rate of 0.9% saline via the jugular vein was reduced to 25 μl/min to avoid volume overload. The rats then stabilized for two hours for the kidney to recover from the trauma induced by the probe insertions.
Next, microdialysate from the renal cortex and medulla as well as urine were collected for 30 minutes, and MABP and HR were time averaged during this first (basal) period. Rats were then randomized to receive 8-aminoguanosine, 8-aminoguanine, or vehicle using the dose and manner described for Protocol 1. Ten minutes after the treatments, microdialysate from the renal cortex and medulla as well as urine were again collected for 30 minutes, and MABP and HR were time averaged during this treatment period. After 15 minutes, this procedure was repeated. 8-Aminoguanosine and 8-aminoguanine were measured in urine and microdialysate using ultra-performance liquid chromatography-tandem mass spectrometry (LC-MS/MS) as described below.
Assay for 8-Aminoguanosine and 8-Aminoguanine. The purines in the urine and microdialysate were measured by LC-MS/MS using a method similar to a previously described method (Jackson et al., J Biol Chem 284:33097-33106, 2009), but with modifications. Purines were separated using reversed-phase ultra-performance liquid chromatography (Waters UPLC BEH C18 column, 1.7 μm beads; 2.1×150 mm; Milford, Mass.) and quantified by selected reaction monitoring using a triple quadrupole mass spectrometer (TSQ Quantum-Ultra; ThermoFisher Scientific, San Jose, Calif.) with a heated electrospray ionization source. The mobile phase included a linear gradient flow rate (300 uL/min) of 1% acetic acid in water (pH, 3; mobile phase A) as well as 100% methanol (mobile phase B) and was delivered with a Waters Acquity ultra-performance liquid chromatographic system. […]
Microdialysis probes were inserted into the renal cortex and medulla of anesthetized rats; the rats stabilized for 2 hours and were then administered an intravenous bolus of vehicle (control group), 8-aminoguanosine (33.5 μmoles/kg), or 8-aminoguanine (33.5 μmoles/kg). The levels of these compounds were then measured in the renal cortex and medulla as well as in the urine using LC-MS/MS.

[2] = system: obese ZDSD (metabolic syndrome); assay: Glycated hemoglobin (HbA1C) in obese ZDSD at end of diabetogenic diet; type: in vivo, Zucker Diabetic Sprague Dawley rats; conditions: chronic treatment 10 mg/kg/day
From the text: This example describes the long-term effects of 8-aminoguanine on (FIG. 18) on glycated hemoglobin (HbA1C) levels in blood from rats with the metabolic syndrome (i.e., obese ZDSD) at the end of a diabetogenic diet. Obese ZDSD are a recently developed model (developed by PreClinOmics) of metabolic syndrome that have a mild elevation of MABP and have dyslipidemia, diabetes, and obesity.

[3] = system: Dahl salt-sensitive rats (Dahl SS); assay: Long-term MABP in Dahl salt-sensitive rats; type: in vivo; conditions: 10 mg/kg/day in drinking water; 8% NaCl diet
From the text: This example describes the long-term effects of 8-aminoguanine (FIG. 11A) and 8-aminoguanosine (FIG. 11B) on mean arterial blood pressure (MABP) in Dahl salt-sensitive rats (Dahl SS). Dahl SS are a well-established model of salt-sensitive hypertension. All animals were instrumented for long-term measurement of MABP by radiotelemetry as previously described (Jackson E K et al., Hypertension, 65:238-249, 2015). Group 1 Dahl SS received only normal drinking water, whereas Group 2 received normal drinking water for 7 days and then were provided drinking water containing either 8-aminoguanine or 8-aminoguanosine (10 mg/kg/day) for the remainder of the study. The experiment was divided into two phases (indicated by the boxes). During phase 1, all rats received a low-salt (0.3% NaCl) diet. During phase 2, all animals received a high-salt (8% NaCl) diet. The study was continued until all animals expired, so the sample size decreases with time. The blood pressures of the 8-aminoguanine- and 8-aminoguanosine-treated rats were obtainable for a longer period of time because they survived longer. […] Therefore, any stroke and survival benefit for 8-aminoguanosine cannot be attributed to changes in MABP. Why 8-aminoguaine, but not 8-aminoguanosine, lowers MABP in Dahl SS on a high-salt diet is currently unknown, but may be due to different pharmacokinetics of the compounds in this rat strain.

[4] = system: RBCs from SCD patients (HbSS); assay: Hypoxia-induced sickling of RBCs from SCD patients; type: cell-based, human
Method: In addition to causing PH in SCD patients and HIV-infected patients, the contribution of PNPase to RBC sickling in SCD patients was assessed. Fresh RBCs were obtained from two adult SCD patients (HbSS); the RBCs were diluted in F-10 HAM buffer to a final hematocrit of 4%. Next, glucose was added for a final concentration of 5.5 mmol/L, and the samples were incubated at room air/temperature in 12-well plates. The RBCs were then treated with either vehicle, 8-aminoguanosine (2 μmol/L), inosine (2 μmol/L), or an 8-aminoguanosine and inosine combination. After 1.5 hours, the RBCs were placed in a hypoxic glove box and maintained under hypoxia (5% 02) for 3 hours, while undergoing mild agitation. At the end of incubation, to prevent reoxygenation-derived morphological changes, the RBCs were fixed under hypoxic conditions in the hypoxic glove box. The samples were assayed for percent sickling.

[5] = system: Sugen 5416+hypoxia-induced PH; assay: Sugen 5416+hypoxia-induced angioproliferative pulmonary hypertension; type: in vivo, female Sprague Dawley rats; conditions: 30 mg/kg/day in drinking water
From the text: A total of 36 female Sprague Dawley rats were used to determine whether administration of the PNPase inhibitor 8-aminoguanosine attenuates development of angioproliferative PH in animals with Sugene5416+hypoxia-induced PH. The animals were randomly assigned to receive subcutaneous injection of vehicle [(control group; n=8; 0.5% (w/v) carboxymethylcellulose sodium, 0.9% (w/v) sodium chloride, 0.4% (v/v) polysorbate 80, and 0.9% (v/v) benzyl alcohol in deionized water] or subcutaneous injection of SU5416 20 mg/kg (n=16; SU+Hx group). A subset of the SU5416-treated animals received 8-aminoguanosine (30 mg/kg/day in drinking water (n=12; 8-amino-guanosine group). On day 0, all SU5416-treated animals (SU+Hx and 8-aminoguanosine groups) were exposed to chronic hypoxia for 3 weeks. The animals were placed into normobaric plexiglas chambers (BioSpherix, Redfield, N.J., USA). The chambers were continuously flushed with nitrogen to maintain 10% oxygen and low CO2 concentrations (<0.5%) with the O2 and CO2 concentrations continuously monitored (PROOX110, BioSpherix oxygen controller and LB-2 CO2 analyzer, Sensormedics). At day 21, the animals were returned to a normoxic environment. Three weeks later (day 42), the animals were anesthetized and instrumented for RVPSP measurements. A PE-240 polyethylene catheter was inserted into the trachea to facilitate breathing, and the SPR-513 catheter (Millar Instruments) was inserted into right jugular vein and advanced into RV for RVPSP measurements. After 20-30-minutes of stabilization, RVPSP was recorded over 20 minutes. The animals were euthanized by anesthetic overdose, and the heart and lungs were collected for morphometric analyses.

Structure (SMILES) | interstitial levels of 8-aminoguanine in the renal cortex ([1]; microdialysate) | interstitial levels of 8-aminoguanine in the renal medulla ([1]; microdialysate) | urinary levels of 8-aminoguanine ([1]; urine) | urinary levels of 8-aminoguanosine ([1]; urine) | glycated hemoglobin (HbA1C) levels in blood [2] | MABP in Dahl SS on a high-salt diet [3] | hypoxia-induced sickling of RBCs ([4]; 2 μmol/L, 1.5 hours pre-incubation, then hypoxia for 3 hours) | effect on the inhibitory effects of inosine on hypoxia-induced sickling ([4]; 8-aminoguanosine (2 μmol/L) combined with inosine (2 μmol/L)) | Fulton index ([5]; day 42) | RV contractility ([5]; day 42) | RV end diastolic pressure (RV EDP) ([5]; day 42) | right ventricular peak systolic pressure (RVPSP) ([5]; day 42) | grade 6 necrotizing arteritis lesions ([5]; histopathology) | occlusive vascular lesions ([5]; histopathology) | plexiform vascular lesions ([5]; histopathology)
Nc1nc2[nH]c(N)nc2c(=O)[nH]1 [8-aminoguanine, 8-Aminoguanine] | immediate, sustained, similar, and large increases | immediate, sustained, similar, and large increases | immediate, sustained, similar, and large increases | did not affect | dramatic anti-diabetic effect | decreases MABP | – | – | – | – | – | – | – | – | –
Nc1nc2c(nc(N)n2[C@@H]2O[C@H](CO)[C@@H](O)[C@H]2O)c(=O)[nH]1 [8-aminoguanosine, 8-Aminoguanosine] | – | – | – | – | significantly lowered | did not alter MABP | significantly reduced | potentiated | decreased | improved | decreased | significantly reduced | prevented sporadic occurrence | reduced the number | reduced the number
